Laboratory results reported in paper PMC10600247, “Impact of C- and N-terminal protection on the stability, metal chelation and antimicrobial properties of calcitermin” (Scientific Reports, 2023).
Residues, ends and D or L forms follow the SMILES beside them.

Key:
[1] = in vitro; details: human, pH 7.4
Method: Each peptide (C = 1·10^–4 M) and metal complex (metal:ligand ratio 1:1) was incubated in a sample containing 1 ml of human plasma (obtained as a pool of 40 individuals from the University Hospital of Ferrara) and 1 ml of ammonium acetate buffer (pH 7.4) at 37 °C. L-phenylalaninol is added as internal standard. At regular time intervals, 200 μl aliquots were taken and enzymatic reaction was blocked by adding 300 μl of HClO4 0.5 M. The sample was then centrifugated for 6 min at 14,000 × g. The supernatant was then filtered and analysed by HPLC. The analytical column was an Agilent Poroshell 120 SB-C18 (4.6 × 100 mm, 2.7 μm, pore size 120 Å). Flow rate = 0.5 ml/min, mobile phase H2O + 0.1% v/v TFA, linear gradient from 0 to 60% of acetonitrile + 0.1% v/v TFA over 30 min for the elution of peptides, temperature 25 °C, detection wavelength 210 nm. […] Informed consent was obtained from all subjects and/or their legal guardian(s) prior to the donation of blood samples. All experimental protocols were approved by the National Research and Research Transversal Processes boards at University of Ferrara. All methods were carried out in accordance with relevant guidelines and regulations.

[2] = tested on: C. albicans (ATCC 10231); experiment: In vitro antifungal CFU assay; format: cell-based, Candida albicans; details: pH 5.4; for mean CFU number ± S.D.: per 0.1 mL
Method: (§1) All microbes were grown at 37 °C in Tryptic Soy Broth (TSB; Biolife, Milan, Italy) or Tryptic Soy Agar plates (TSA, Biolife, Milan, Italy). Peptides were tested at a final concentration C = 0.128, 0.064, 0.032 mg/mL, in the presence or absence of ZnCl2 or CuCl2, at a M:L molar ratio 0.9:1. Briefly, all the microbes were expanded in TSB at 37 °C under agitation for 12 h and then sub-cultured by 1:10 dilution in TSB under the same conditions until reaching OD600nm = 0.3–0.4, as measured by spectrophotometric reading using a GENESYS 10S UV–Vis spectrophotometer (Thermo Scientific, Milan, Italy), corresponding to 0.9–1.2 × 10^7 colony forming units (CFU) per mL, 1.5–2 × 10^8 CFU/mL and 2.4–3.2 × 10^8 CFU/mL, for C. albicans, S. aureus and E. coli respectively. The cultures were then centrifuged at 4500 rpm for 10 min in a SL 8 centrifuge (TX-150 Rotor) (Thermo Scientific, Milan, Italy), and the cellular pellets were washed with PBS pH 5.4. Pelletized cultures were then suspended in 10 mL of PBS pH 5.4, then the suspensions were diluted to a final concentration of 10^4 CFU/mL. Aliquots of 100 µl (corresponding to 10^3 CFU) were seeded in each well of a 96-wells plate. 3 µl of TSB at pH 5.4 were added to each well to obtain a final 1.5% TSB concentration in the culture medium. Peptides were serially diluted in PBS pH 5.4 to C = 0.257, 0.128, and 0.064 mg/mL. ZnCl2 and CuCl2 solutions were added where requested to obtain a M:L ratio 0.9:1. 100 µl of the prepared peptides ± ZnCl2/CuCl2 solutions were then added to each well, obtaining the final 0.128, 0.064 and 0.032 mg/mL peptide concentrations in a total 0.2 mL volume. PBS alone and PBS + ZnCl2/CuCl2 solutions were included as controls. The plates were incubated at 37 °C on a platform rocker with slow stirring for 3 and 24 h. At the end of the incubation times, 100 µl aliquots were taken from each sample and diluted in PBS pH 5.4 to be seeded on TSA plates. Specifically, aliquots were diluted 1:10 at 3 h, and 1:200, 1:100,000 and 1:10 at 24 h, for C. albicans, E. coli, and S. aureus respectively. After incubation for 24 h at 37 °C, grown CFUs were enumerated. Samples were assayed in triplicate in two independent experiments. Student’s t-test was used for the evaluation of significance in biological tests; a p value ≤ 0.05 was considered significant.

[3] = tested on: S. aureus (ATCC 25293); experiment: In vitro anti-S. aureus CFU assay; format: cell-based, Staphylococcus aureus; details: 3 h, pH 5.4; for mean CFU number ± S.D.: per 0.1 mL
Method: as §1

[4] = peptide 0.032 mg/mL + CuCl2 (0.9:1), 3 h
[5] = peptide 0.032 mg/mL + ZnCl2 (0.9:1), 3 h
[6] = peptide 0.032 mg/mL + ZnCl2 (0.9:1), 24 h
[7] = peptide 0.064 mg/mL + CuCl2 (0.9:1), 3 h
[8] = peptide 0.064 mg/mL + ZnCl2 (0.9:1), 3 h
[9] = peptide 0.128 mg/mL + CuCl2 (0.9:1), 3 h
[10] = peptide 0.128 mg/mL + ZnCl2 (0.9:1), 3 h
[11] = peptide 0.032 mg/mL + CuCl2 (0.9:1)
[12] = peptide 0.032 mg/mL + ZnCl2 (0.9:1)
[13] = peptide 0.064 mg/mL + CuCl2 (0.9:1)
[14] = peptide 0.064 mg/mL + ZnCl2 (0.9:1)
[15] = peptide 0.128 mg/mL + CuCl2 (0.9:1)

## CC[C@H](C)[C@H](NC(=O)[C@H](C)NC(=O)[C@@H](NC(C)=O)C(C)C)C(=O)N[C@@H](C)C(=O)N[C@@H](CC(C)C)C(=O)N[C@@H](CCCCN)C(=O)N[C@@H](C)C(=O)N[C@@H](C)C(=O)N[C@@H](Cc1c[nH]cn1)C(=O)N[C@@H](Cc1ccc(O)cc1)C(=O)N[C@@H](Cc1c[nH]cn1)C(=O)N[C@H](C(=O)N[C@@H](Cc1c[nH]cn1)C(=O)N[C@@H](CCCCN)C(=O)N[C@@H](CCC(=O)O)C(=O)O)[C@@H](C)O [L1, Ac-VAIALKAAHYHTHKE] (Ac-VAIALKAAHYHTHKE-OH)
[1]
  half-life: 2.25 h
[2]; [4]
  CFU decrease/increase with respect to untreated controls: -27.3%
  mean CFU number ± S.D.: 40 ± 28 CFU
[2]; peptide 0.032 mg/mL + CuCl2 (0.9:1), 24 h
  mean CFU number ± S.D.: 1,908 ± 160 CFU
[2]; [5]
  CFU decrease/increase with respect to untreated controls: +16%
  mean CFU number ± S.D.: 67 ± 4 CFU
[2]; [6]
  CFU decrease/increase with respect to untreated controls: -2%
  mean CFU number ± S.D.: 2,230 ± 326 CFU
[2]; [7]
  CFU decrease/increase with respect to untreated controls: -27.3%
  mean CFU number ± S.D.: 40 ± 24 CFU
[2]; peptide 0.064 mg/mL + CuCl2 (0.9:1), 24 h
  mean CFU number ± S.D.: 1,576 ± 112 CFU
[2]; [8]
  CFU decrease/increase with respect to untreated controls: +60%
  mean CFU number ± S.D.: 88 ± 7 CFU
[2]; peptide 0.064 mg/mL + ZnCl2 (0.9:1), 24 h
  mean CFU number ± S.D.: 1,619 ± 165 CFU
[2]; [9]
  CFU decrease/increase with respect to untreated controls: -27.3%
  mean CFU number ± S.D.: 40 ± 11 CFU
[2]; peptide 0.128 mg/mL + CuCl2 (0.9:1), 24 h
  mean CFU number ± S.D.: 1,428 ± 24 CFU
[2]; [10]
  CFU decrease/increase with respect to untreated controls: +31%
  mean CFU number ± S.D.: 72 ± 10 CFU
[2]; peptide 0.128 mg/mL + ZnCl2 (0.9:1), 24 h
  mean CFU number ± S.D.: 265 ± 108 CFU
[2]; peptide alone 0.032 mg/mL, 3 h
  mean CFU number ± S.D.: 40 ± 10 CFU
[2]; peptide alone 0.032 mg/mL, 24 h
  mean CFU number ± S.D.: 1,789 ± 225 CFU
[2]; peptide alone 0.064 mg/mL, 3 h
  CFU decrease/increase with respect to untreated controls: -1.8%
  mean CFU number ± S.D.: 54 ± 6 CFU
[2]; peptide alone 0.064 mg/mL, 24 h
  mean CFU number ± S.D.: 1,807 ± 433 CFU
[2]; peptide alone 0.128 mg/mL, 3 h
  CFU decrease/increase with respect to untreated controls: -51%
  mean CFU number ± S.D.: 27 ± 0.6 CFU
[2]; peptide alone 0.128 mg/mL, 24 h
  mean CFU number ± S.D.: 1,666 ± 229 CFU
[3]; [11]
  CFU decrease/increase with respect to untreated controls: +20%
  mean CFU number ± S.D.: 193 ± 54 CFU
[3]; [12]
  CFU decrease/increase with respect to untreated controls: +14%
  mean CFU number ± S.D.: 183 ± 24 CFU
[3]; [13]
  CFU decrease/increase with respect to untreated controls: +37%
  mean CFU number ± S.D.: 221 ± 66 CFU
[3]; [14]
  CFU decrease/increase with respect to untreated controls: +19%
  mean CFU number ± S.D.: 191 ± 6 CFU
[3]; [15]
  CFU decrease/increase with respect to untreated controls: +3%
  mean CFU number ± S.D.: 166 ± 35 CFU
[3]; peptide 0.128 mg/mL + ZnCl2 (0.9:1)
  mean CFU number ± S.D.: 87 ± 8 CFU
[3]; peptide alone 0.032 mg/mL
  CFU decrease/increase with respect to untreated controls: +34%
  mean CFU number ± S.D.: 215 ± 68 CFU
[3]; peptide alone 0.064 mg/mL
  CFU decrease/increase with respect to untreated controls: -4%
  mean CFU number ± S.D.: 155 ± 31 CFU
[3]; peptide alone 0.128 mg/mL
  CFU decrease/increase with respect to untreated controls: +31%
  mean CFU number ± S.D.: 211 ± 49 CFU
